Source: US11034952B2, “Aptamer methods and compositions” (The Trustees of Columbia University in the City of New York, priority 2013, dated 2021)
Each block holds one compound with its values, some of them ahead of it.

Assays:
[1] = read-out: Kd for glucose; cited from earlier work
[2] = oral phenylalanine load, Phe concentration in serum from capillary blood detected by aptamer; type: in vivo; settings: 100 mg per kg body weight by mouth, 1 hr, FIG. 11B
Method: FIG. 11A-FIG. 11B is a chemical structure of PACp*Rh01 aptamer (SEQ ID NO: 53) reactive for Phe and cross-reactive for Trp and a scatter and line plot showing use thereof. FIG. 11A depicts the structure of an aptamer reactive for Phe and cross-reactive for Trp. FIG. 11B is a scatter and line plot showing aptamer detected Phe concentration (μM) as a function of time (hr) in serum samples from capillary blood of subject two and subject three having an oral load of 100 mg/kg at time zero.
This aptamer was used to detected Phe concentration (μM) as a function of time (hr) in serum samples from capillary blood of subject one and subject three that took 100 mg of phenylanine per kg body weight by mouth at time zero (see e.g., FIG. 11B). […] Every hour, blood was measured for the phenylalanine concentration. In a healthy subject, the enzymes that break down phenylalanine (e.g., phenylalanine hydroxylase (PAH) or BH4-cofactor, alone or together) are stimulated and break down phenylalanine resulting in decreased concentration (see 2-5 hr in FIG. 11B).

[3] = system: phenylalanine complexed with Cu(II); assay: amino acid selectivity of Cu(II) phenylalanine aptamers (RFU vs amino acid concentration); type: binding; settings: for amino acid selectivity: Cu(II)
Method: (§1) FIG. 12A-FIG. 12D is a series of aptamer structures and scatter and line plots showing use thereof.
This aptamer sensor mixture (not including Cp*Rh) was incubated with concentrations of amino acids (Phe, Tyr, Trp, Gly) and fluorescence (RFU) measured (see e.g., FIG. 12B).

[4] = system: amino acid complexed with Cp*Rh(III); assay: amino acid selectivity of Cp*Rh(III)-amino acid binding aptamers in sensor form; settings: Cp*Rh(III) derivatization agent
Description: A series of aptamers were formed having an unbound nucleic acid pocket (see e.g., FIG. 7B-G).
An exemplary motif having a plurality of unpaired bases forming a pocket that binds a metal complex or an amino acid target molecule is shown in FIG. 8A. […]

[5] = amino acid selectivity of HPheA104 aptamer sensor (RFU vs amino acid concentration); type: binding
Method: as §1
This aptamer sensor mixture (not including Cp*Rh) was incubated with concentrations of amino acids (Phe, Trp, Tyr) and fluorescence (RFU) measured (see e.g., FIG. 12D).

Compound: CN(Cc1ccccc1B(O)O)Cc1c2ccccc2c(CN(C)Cc2ccccc2B(O)O)c2ccccc12 [bis-boronic receptor]
Kd [1]: ~500 µM

phenylalanine concentration in blood [2]: rises significantly
Compound: N[C@@H](Cc1ccccc1)C(=O)O [phenylalanine]

Compound: CTCTCGGGACGACAGGTCCCTTTCGTAGATCGAGGAAGTATGTCGTCCC (listed as DNA, chemistry not fully specified) [Cu(II)-Phe10_49 nt, phenylalanine-Cu(II) complex aptamer]
amino acid selectivity [3]: Phe cross-reactive Trp

Compound: CTCTCGGGACGACCGCGGTAGTCTTAACCTAAAGCGGTGTCAGGTCGTCCC (listed as DNA, chemistry not fully specified) [HTrp03, tryptophan-Cp*Rh(III) complex aptamer]
amino acid selectivity [4]: Trp selective

Compound: CTCTCGGGACGACCGCGTTTCCCAAGAAAGCAAGTTTTGGTTGGTCGTCCC (aptamer; listed as DNA, chemistry not fully specified) [HPheA104]
amino acid selectivity [5]: Phe reactive
specificity among phenylalanine, tryptophan, tyrosine ([5]; sensor mixture not including Cp*Rh, FIG. 12D): Phe specificity is demonstrated

Compound: CTCTCGGGACGACGACACGGGCGTCCCTTCACAAGGAGAGTGAGTCGTCCC (listed as DNA, chemistry not fully specified) [ARG01_Cp, arginine-Cp*Rh(III) complex aptamer]
amino acid selectivity [4]: Arg selective

Compound: CTCTCGGGACGACGAGGCTGGATGCATTCGCCGGATGTTCGATGTCGTCCC (listed as DNA, chemistry not fully specified) [Cu(II)_Phe01, phenylalanine-Cu(II) complex aptamer]
amino acid selectivity [3]: Phe reactive
specificity among phenylalanine, tyrosine, tryptophan, glycine ([3]; sensor mixture not including Cp*Rh, FIG. 12B): Phe specificity is demonstrated

Compound: CTCTCGGGACGACGCGGTGTGGATCCCTCGTAGAAGGAGTAGTGTCGTCCC (aptamer; listed as DNA, chemistry not fully specified) [LysCp05, lysine-Cp*Rh(III) complex aptamer]
amino acid selectivity [4]: Lys selective

Compound: CTCTCGGGACGACGGACGCTAATCTTACAAGGGCGTAGTGTATGTCGTCCC (listed as DNA, chemistry not fully specified) [PACp*Rh01, phenylalanine-Cp*Rh(III) complex aptamer]
amino acid selectivity [4]: Phe cross-reactive Trp

Compound: CTCTCGGGACGACGGCCCGATCTCAGAGTAGTCGTCCC (listed as DNA, chemistry not fully specified) [Tyr-Cp*Rh(38nt), tyrosine-Cp*Rh(III) complex aptamer]
amino acid selectivity [4]: Tyr selective

Compound: CTCTCGGGACGACGGCGGGCGCGTATGTATATCATAAGGTGTAGTCGTCCC (aptamer; listed as DNA, chemistry not fully specified) [LeuCp17, leucine-Cp*Rh(III) complex aptamer]
amino acid selectivity [4]: selective for Leu over Ile

Compound: CTCTCGGGACGACGGCGGGGAAACAGCTGCAAAATGTGGAGTAGTCGTCCC (Cp*Rh(III)-citrulline complex, further chemistry not given here) [CIT30N02_Cp*Rh, citrulline-Cp*Rh(III) complex aptamer]
amino acid selectivity [4]: citrulline non-selective

Compound: CTCTCGGGACGACGGCGGGTGAATGCACACTTAGCAGAGAGTAGTCGTCCC (aptamer; listed as DNA, chemistry not fully specified) [GlutaCp02, glutamine-Cp*Rh(III) complex aptamer]
amino acid selectivity [4]: Gln selective

Compound: CTCTCGGGACGACGGGCCACGTTTTCCAGGTACTTTCTAAGGGGTCGTCCC (aptamer; listed as DNA, chemistry not fully specified) [AspaCp03, asparagine-Cp*Rh(III) complex aptamer]
amino acid selectivity [4]: Asn selective

Compound: CTCTCGGGACGACGGGCTAGGCGTGGGTGTAAAGGCACAGGGGTCGTCCC (listed as DNA, chemistry not fully specified) [Gly-Cp sensor, glycine-Cp*Rh(III) complex aptamer]
amino acid selectivity [4]: Gly selective

Compound: CTCTCGGGACGACGGGTCAGTTAGACCGTGAGGCTTCCGAATAGTCGTCCC (aptamer; listed as DNA, chemistry not fully specified) [GLYHW-Cp*Rh06, glycine-Cp*Rh(III) complex aptamer]
amino acid selectivity [4]: Gly non-specific

Compound: CTCTCGGGACGACGGGTGGGAGCGATTCGAGCTACTCAGGTATGTCGTCCC (aptamer; listed as DNA, chemistry not fully specified) [LysCp*Rh18, lysine-Cp*Rh(III) complex aptamer]
amino acid selectivity [4]: Lys non-selective
